Source: patent publication US9975896B2, “Inhibitors of transcription factors and uses thereof” (Dana-Farber Cancer Institute, Inc., priority 2013, dated 2018)
Read-outs that look alike come from different tables or passages of the source.

Key:
[1] = target: BRD4 (Homo sapiens, UniProt O60885); experiment: In vitro AlphaScreen protein binding assay (competition with biotinylated JQ1)
Method: Assays were performed with minor modifications from the manufacturer's protocol (PerkinElmer, USA). All reagents were diluted in 50 mM HEPES, 150 mM NaCl, 0.1% w/v BSA, and 0.01% w/v Tween® 20 at pH 7.5 and allowed to equilibrate to room temperature prior to addition to plates. After addition of Alpha beads to master solutions, all subsequent steps were performed in low light conditions. […] After a 1000-rpm spin-down for 1 minute, 100 nL of the solutions of compounds of the invention in DMSO from stock plates were added by pin transfer using a Janus Workstation (PerkinElmer, USA). The streptavidin-coated donor beads (25 μg/ml final) were added as with previous solution in a 2×, 10 μL volume. Following this addition, the plates were sealed with foil to block light exposure and to prevent evaporation. The plates were spun down again at 1000 rpm for 1 minute. Next, the plates were incubated in the room with the plate reader (for temperature equilibration) for 1 hour prior to reading the assay. Signal is stable for up to 3 hours after donor bead addition.

[2] = system: BRD4-dependent Nut-Midline Carcinoma line 797; experiment: Cell viability (ATPlite) in BRD4 dependant cell line 797; settings: Homo sapiens
[3] = system: lung carcinoma cell line H2171; experiment: Cellular IC50 in lung carcinoma cell line H2171; type: cell-based
Method: Cells (e.g., BRD4 dependant cells) were counted and adjusted to 60,000 cells/mL. Using a Biotek EL406, 50 μL of the cells in media were distributed into 384 well white plates from Thermo. Immediately after plating, compounds of the invention in DMSO were distributed to plates. For large plate sets, cells were returned to a 37° C. incubator while not in use. The compounds were added to plates using a 100 nL 384 well pin transfer manifold on a Janus workstation. Stocks were arrayed in 10 point quadruplicate dose response in DMSO stock in 384-well Greiner compound plates. After addition of the compounds, plates were incubated for three days in a 37° C. incubator. Cell viability was read out using ATPlite from Perkin Elmer. Plates were removed from the incubator and brought to room temperature prior to use. Lyophilized powder was resuspended in lysis buffer and diluted 1:2 with DI water. 25 μL of this solution was added to each well using the Biotek liquid handler. Plates were sealed with adherent aluminum seals prior to vortexing and spinning down at 1000 g for 1 minute. Plates were incubated for 15 minutes at room temperature before signal was read on an Envision Plate Reader.

[4] = Table 1, in vitro, AlphaScreen, inhibiting the activity of BRD4
[5] = read-out: BRD4--IC50, Table 6, biochemical
[6] = read-out: BRD4--IC50, Table 5, biochemical
[7] = read-out: BRD4--IC50, Table 7, biochemical

| EC50 [2] | EC50 ([2]; read-out: 797--EC50 (μM)) | IC50 [1, 4] | IC50 [1, 5] | Compound | also measured |
| --- | --- | --- | --- | --- | --- |
| – | – | – | – | Cc1noc(C)c1-c1ccc(-c2nc3cnccn3c2NCC(=O)O)cc1 [Compound 22a, 2-((2-(4-(3,5-Dimethylisoxazol-4-yl)phenyl)imidazo[1,2-a]pyrazin-3-yl)amino)acetic acid] | IC50 ([1]; BRD4--IC50 (μM), Table 6, biochemical): > 100 µM |
| 18.4 µM | 18.4 µM | 11.8 µM | 11.8 µM | Cc1noc(C)c1-c1ccc(-c2nc3ccc(Cl)cn3c2NCc2ccccc2)cc1 [UMB20, N-Benzyl-6-chloro-2-(4-(3,5-dimethylisoxazol-4-yl)phenyl)imidazo[1,2-α]pyridin-3-amine] | – |
| – | 9.91 µM | – | – | CCCCN1C(=O)c2ccccc2NC(=O)C1c1ccc(-c2c(C)noc2C)c(OC)c1 (stereo not drawn) [UMB18, 2-Butyl-3-(4-(3,5-dimethylisoxazol-4-yl)-3-methoxyphenyl)-2,3-dihydro-1H-benzo[e][1,4]diazepine-1,4(5H)-dione] | IC50 [1, 6]: 13 µM |
| – | – | – | 4.53 µM | CCOC(=O)CNc1c(-c2ccc(-c3c(C)noc3C)cc2)nc2cnccn12 [Compound 23a, Ethyl 2-((2-(4-(3,5-dimethylisoxazol-4-yl)phenyl)imidazo[1,2-a]pyrazin-3-yl)amino)acetate] | – |
| – | – | – | 11.9 µM | Cc1noc(C)c1-c1ccc(-c2nc3c(C(F)(F)F)cccn3c2NC(C)(C)C)cc1 [Compound 28a, N-(tert-butyl)-2-(4-(3,5-dimethylisoxazol-4-yl)phenyl)-8-(trifluoromethyl)imidazo[1,2-a]pyridin-3-amine] | – |
| – | – | – | 1.62 µM | COC(=O)c1ccc2nc(-c3ccc(-c4c(C)noc4C)cc3)c(NC(C)(C)C)n2c1 [Compound 29a, Methyl 3-(tert-butylamino)-2-(4-(3,5-dimethylisoxazol-4-yl)phenyl)imidazo[1,2-a]pyridine-6-carboxylate] | – |
| 20.7 µM | 20.7 µM | 31.5 µM | 31.5 µM | COc1ccc(Nc2c(-c3ccc(-c4c(C)noc4C)cc3)nc3ccc(Cl)cn23)cc1 [UMB23, 6-Chloro-2-(4-(3,5-dimethylisoxazol-4-yl)phenyl)-N-(4-methoxy-phenyl)imidazo-[1,2-α]pyridine-3-amine] | – |
| 49.1 µM | 49.1 µM | 18.8 µM | 18.8 µM | Cc1noc(C)c1-c1ccc(-c2nc3cnccn3c2NCc2ccccc2)cc1 [UMB21, N-Benzyl-2-(4-(3,5-dimethylisoxazol-4-yl)phenyl)imidazo[1,2-α]-pyrazin-3-amine] | – |
| – | – | – | – | Cc1noc(C)c1-c1ccc(-c2nc3ccccn3c2NCc2ccccc2)cc1 [UMB11, N-Benzyl-2-(4-(3,5-dimethylisoxazol-4-yl)phenyl)imidazo[1,2-α]pyridin-3-amine] | IC50 ([3]; Homo sapiens, NCI-H2171, Table 2, cellular, lung carcinoma cell line H2171): 0.76 µM; cellular activity in H2171 ([3]; text b616): show cellular activity in H2171 |
| – | – | – | – | COc1cc(-c2c(C)noc2C)ccc1-c1nc2cnccn2c1NC(C)(C)C [Compound 39a, N-(tert-butyl)-2-(4-(3,5-dimethylisoxazol-4-yl)-2-methoxyphenyl)imidazo[1,2-a]pyrazin-3-amine] | IC50 [1, 7]: 0.562 µM |
| 7.36 µM | 7.36 µM | 2.76 µM | 2.76 µM | COc1ccc(Nc2c(-c3ccc(-c4c(C)noc4C)cc3)nc3ccccn23)cc1 [UMB30, 2-(4-(3,5-Dimethylisoxazol-4-yl)phenyl)-N-(4-methoxyphenyl)imidazo-[1,2-α]pyridin-3-amine] | – |
| – | – | – | 3.17 µM | Cc1ccc2nc(-c3ccc(-c4c(C)noc4C)cc3)c(NC(C)(C)C)n2c1 [Compound 27a, N-(tert-butyl)-2-(4-(3,5-dimethylisoxazol-4-yl)phenyl)-6-methylimidazo[1,2-a]pyridin-3-amine] | – |
| 2.19 µM | 2.19 µM | 1.17 µM | 1.17 µM | Cc1noc(C)c1-c1ccc(-c2nc3ccc(Cl)cn3c2NC(C)(C)C)cc1 [UMB31, N-(t-Butyl)-6-chloro-2-(4-(3,5-dimethylisoxazol-4-yl)phenyl)-imidazo-[1,2-α]pyridin-3-amine] | – |
| – | – | – | 0.86 µM | Cc1noc(C)c1-c1ccc(-c2nc3ncccn3c2NC(C)(C)C)cc1 [Compound 33a, N-(Tert-butyl)-2-(4-(3,5-dimethylisoxazol-4-yl)phenyl)imidazo[1,2-a]pyrimidin-3-amine] | – |
| – | – | – | – | COc1cc(-c2c(C)noc2C)ccc1-c1nc2cnccn2c1NC(C)C [Compound 40a, 2-(4-(3,5-dimethylisoxazol-4-yl)-2-methoxyphenyl)-N-isopropylimidazo[1,2-a]pyrazin-3-amine] | IC50 [1, 7]: 0.474 µM |
| – | 12.8 µM | – | – | Cc1noc(C)c1-c1ccc(-c2nc3cnccn3c2NC(C)(C)C)cc1F [UMB55, N-(tert-butyl)-2-(4-(3,5-dimethylisoxazol-4-yl)-3-fluorophenyl)imidazo[1,2-a]pyrazin-3-amine] | IC50 [1, 7]: 13 µM |

| EC50 [2] | EC50 ([2]; read-out: 797--EC50 (μM)) | IC50 [1, 4] | IC50 [1, 5] | Compound | also measured |
| --- | --- | --- | --- | --- | --- |
| – | – | – | 20.7 µM | Cc1noc(C)c1-c1ccc(-c2nc3ccncn3c2NC(C)(C)C)cc1 [UMB56, N-(Tert-butyl)-2-(4-(3,5-dimethylisoxazol-4-yl)phenyl)imidazo[1,2-c]pyrimidin-3-amine] | – |
| – | – | – | 4.96 µM | Cc1noc(C)c1-c1ccc(-c2nc3cnccn3c2NCC(=O)OC(C)(C)C)cc1 [Compound 24a, Tert-butyl (2-(4-(3,5-dimethylisoxazol-4-yl)phenyl)imidazo[1,2-a]pyrazin-3-yl)glycinate] | – |
| 2.04 µM | 2.04 µM | 0.479 µM | 0.479 µM | Cc1noc(C)c1-c1ccc(-c2nc3ccccn3c2NC(C)(C)C)cc1 [UMB29, N-(t-Butyl)-2-(4-(3,5-dimethylisoxazol-4-yl)phenyl)imidazo[1,2-α]pyridin-3-amine] | – |
| 5.07 µM | 5.07 µM | 0.904 µM | 0.904 µM | Cc1noc(C)c1-c1ccc(-c2nc3ccccn3c2NC2CCCCC2)cc1 [UMB28, N-Cyclohexyl-2-(4-(3,5-dimethylisoxazol-4-yl)phenyl)imidazo[1,2-α]pyridin-3-amine] | – |
| 207 µM | > 100 µM | 2.05 µM | – | Cc1noc(C)c1-c1cccc(C2Nc3ccccc3NC3=C2C(=O)OC3)c1 (stereo not drawn) [UMB27, 10-(3-(3,5-Dimethylisoxazol-4-yl)phenyl)-3,4,9,10-tetrahydro-1H-benzo[b]furo[3,4-e][1,4]diazepin-1-one] | IC50 [1, 6]: 2.05 µM |
| – | – | – | 1.66 µM | CCCCNc1c(-c2ccc(-c3c(C)noc3C)cc2)nc2cnccn12 [Compound 35a, N-butyl-2-(4-(3,5-dimethylisoxazol-4-yl)phenyl)imidazo[1,2-a]pyrazin-3-amine] | – |
| – | – | – | 2.86 µM | Cc1noc(C)c1-c1ccc(-c2nc3cnccn3c2N[C@@H](C)c2ccccc2)cc1 [Compound 21a, (S)-2-(4-(3,5-dimethylisoxazol-4-yl)phenyl)-N-(1-phenylethyl)imidazo[1,2-a]pyrazin-3-amine] | – |
| – | – | – | 0.968 µM | Cc1noc(C)c1-c1ccc(-c2nc3ccc(C(=O)O)cn3c2NC(C)(C)C)cc1 [Compound 30a, 3-(Tert-butylamino)-2-(4-(3,5-dimethylisoxazol-4-yl)phenyl)imidazo[1,2-a]pyridine-6-carboxylic acid] | – |
| – | – | – | 3.89 µM | Cc1noc(C)c1-c1ccc(-c2nc3ccccn3c2N)cc1 [Compound 12a, 2-(4-(3,5-Dimethylisoxazol-4-yl)phenyl)imidazo[1,2-a]pyridin-3-amine] | – |
| – | 0.494 µM | – | 0.807 µM | Cc1noc(C)c1-c1ccc(-c2nc3cnccn3c2NC(C)C)cc1 [UMB57, 2-(4-(3,5-dimethylisoxazol-4-yl)phenyl)-N-isopropylimidazo[1,2-a]pyrazin-3-amine] | – |
| 20.2 µM | – | 5.1 µM | – | Cc1noc(C)c1-c1cccc(-c2nc3ccccn3c2NCc2ccccc2)c1 [UMB26] | – |
| – | 8.29 µM | – | – | Cc1noc(C)c1-c1ccc(-c2nc3cnccn3c2NC(C)(C)C)nc1 [UMB54, N-(tert-butyl)-2-(5-(3,5-dimethylisoxazol-4-yl)pyridin-2-yl)imidazo[1,2-a]pyrazin-3-amine] | IC50 [1, 7]: 12.9 µM |
| – | > 100 µM | – | – | Cc1noc(C)c1-c1ccc(-c2nc3cnccn3c2NC(C)(C)C)cn1 [UMB53, N-(tert-butyl)-2-(6-(3,5-dimethylisoxazol-4-yl)pyridin-3-yl)imidazo[1,2-a]pyrazin-3-amine] | IC50 [1, 7]: 51.9 µM |
| 11.8 µM | 11.8 µM | 2.89 µM | 2.89 µM | COc1ccc(Nc2c(-c3ccc(-c4c(C)noc4C)cc3)nc3cc(OC)ncn23)cc1 [UMB24, 2-(4-(3,5-Dimethylisoxazol-4-yl)phenyl)-7-methoxy-N-(4-methoxy-phenyl)imidazo[1,2-c]pyrimidin-3-amine] | – |
| 12.4 µM | – | 68.3 µM | – | Cc1noc2ccc(-c3ccc(-c4nc5ccccn5c4NCc4ccccc4)cc3)cc12 [UMB22] | – |

| Compound | EC50 [2] | EC50 ([2]; read-out: 797--EC50 (μM)) | IC50 [1, 4] | IC50 [1, 5] | also measured |
| --- | --- | --- | --- | --- | --- |
| COc1ccc(Nc2c(-c3ccc(-c4c(C)noc4C)cc3)nc3cnccn23)cc1 [UMB25, 2-(4-(3,5-Dimethylisoxazol-4-yl)phenyl)-N-(4-methoxyphenyl)imidazo[1,2-a]pyrazin-3-amine] | 32.8 µM | 32.8 µM | – | 7.86 µM | – |
